ChEMBL document CHEMBL3217491, “Design, synthesis and biological evaluation of imidazopyridine/pyrimidine-chalcone derivatives as potential anticancer agents” (2010)
Activity calls are given as the source filed them. No cut-off for these calls is given here.

How the values were obtained:
[1] = system: NCI-H23; assay: Growth inhibition of human NCI-H23 cells after 48 hrs by SRB assay; type: functional; settings: NCI-H23, 48 h
[2] = system: MDA-MB-468; assay: Growth inhibition of human MDA-MB-468 cells after 48 hrs by SRB assay; type: functional; settings: MDA-MB-468, 48 h
[3] = system: Malme-3M; assay: Growth inhibition of human MALME-3M cells after 48 hrs by SRB assay; type: functional
[4] = system: COLO 205; assay: Growth inhibition of human COLO205 cells after 48 hrs by SRB assay; type: functional; settings: COLO 205, 48 h
[5] = Growth inhibition of human MOLT4 cells after 48 hrs by SRB assay; type: functional; settings: MOLT-4, 48 h
[6] = Growth inhibition of human RXF393 cells after 48 hrs by SRB assay; type: functional; settings: RXF 393, 48 h
[7] = system: K562; assay: Growth inhibition of human K562 cells after 48 hrs by SRB assay; type: functional; settings: K562, 48 h
[8] = system: 786-0; assay: Growth inhibition of human 786-0 cells after 48 hrs by SRB assay; type: functional; settings: 786-0, 48 h
[9] = Growth inhibition of human UO31 cells after 48 hrs by SRB assay; type: functional; settings: UO-31, 48 h
[10] = system: NCI-H522; assay: Growth inhibition of human NCI-H522 cells after 48 hrs by SRB assay; type: functional; settings: NCI-H522, 48 h
[11] = system: T47D; assay: Growth inhibition of human T47D cells after 48 hrs by SRB assay; type: functional
[12] = system: ACHN; assay: Growth inhibition of human ACHN cells after 48 hrs by SRB assay; type: functional
[13] = system: IGROV-1; assay: Growth inhibition of human IGROV1 cells after 48 hrs by SRB assay; type: functional; settings: IGROV-1, 48 h
[14] = system: SK-OV-3; assay: Growth inhibition of human SKOV3 cells after 48 hrs by SRB assay; type: functional; settings: SK-OV-3, 48 h
[15] = system: SNB-19; assay: Growth inhibition of human SNB19 cells after 48 hrs by SRB assay; type: functional; settings: SNB-19, 48 h
[16] = system: SW-620; assay: Growth inhibition of human SW620 cells after 48 hrs by SRB assay; type: functional; settings: SW-620, 48 h
[17] = system: RPMI-8226; assay: Growth inhibition of human RPMI8226 cells after 48 hrs by SRB assay; type: functional; settings: RPMI-8226, 48 h
[18] = Growth inhibition of human HOP92 cells after 48 hrs by SRB assay; type: functional; settings: HOP-92, 48 h
[19] = system: SK-MEL-5; assay: Growth inhibition of human SK-MEL-5 cells after 48 hrs by SRB assay; type: functional; settings: SK-MEL-5, 48 h
[20] = system: KM12; assay: Growth inhibition of human KM12 cells after 48 hrs by SRB assay; type: functional; settings: KM12, 48 h
[21] = Growth inhibition of human HCC2998 cells after 48 hrs by SRB assay; type: functional; settings: HCC 2998, 48 h
[22] = Growth inhibition of human SF295 cells after 48 hrs by SRB assay; type: functional; settings: SF-295, 48 h
[23] = system: SN12C; assay: Growth inhibition of human SN12C cells after 48 hrs by SRB assay; type: functional
[24] = Growth inhibition of human OVCAR5 cells after 48 hrs by SRB assay; type: functional; settings: OVCAR-5, 48 h
[25] = Growth inhibition of human OVCAR3 cells after 48 hrs by SRB assay; type: functional; settings: OVCAR-3, 48 h
[26] = system: U-251; assay: Growth inhibition of human U251 cells after 48 hrs by SRB assay; type: functional; settings: U-251, 48 h
[27] = system: MCF7; assay: Growth inhibition of human MCF7 cells assessed as cell viability at 4 uM after 24 hrs by MTT assay; type: functional, cell-based
[28] = Growth inhibition of human UACC62 cells after 48 hrs by SRB assay; type: functional; settings: UACC-62, 48 h
[29] = system: NCI-H322M; assay: Growth inhibition of human NCI-H322M cells after 48 hrs by SRB assay; type: functional
[30] = system: MCF7; assay: Growth inhibition of human MCF7 cells after 48 hrs by SRB assay; type: functional; settings: MCF7, 48 h
[31] = system: NCI-H460; assay: Growth inhibition of human NCI-H460 cells after 48 hrs by SRB assay; type: functional; settings: NCI-H460, 48 h
[32] = Growth inhibition of human EKVX cells after 48 hrs by SRB assay; type: functional
[33] = system: TK-10; assay: Growth inhibition of human TK10 cells after 48 hrs by SRB assay; type: functional; settings: TK-10, 48 h
[34] = Growth inhibition of human NCI-ADR-RES cells after 48 hrs by SRB assay; type: functional
[35] = Growth inhibition of human HCT15 cells after 48 hrs by SRB assay; type: functional; settings: HCT-15, 48 h
[36] = system: SK-MEL-2; assay: Growth inhibition of human SK-MEL-2 cells after 48 hrs by SRB assay; type: functional; settings: SK-MEL-2, 48 h
[37] = system: MDA-MB-231; assay: Growth inhibition of human MDA-MB-231 cells after 48 hrs by SRB assay; type: functional; settings: MDA-MB-231, 48 h
[38] = Growth inhibition of human SF539 cells after 48 hrs by SRB assay; type: functional; settings: SF-539, 48 h
[39] = system: A549; assay: Growth inhibition of human A549 cells after 48 hrs by SRB assay; type: functional; settings: A549, 48 h
[40] = system: MCF7; assay: Cell cycle arrest in human MCF7 cells assessed as accumulation at G2/M phase at 4 uM after 24 hrs by propidium iodide staining-based flow cytometry (reference value: 15.79%); type: functional
[41] = Growth inhibition of human UACC257 cells after 48 hrs by SRB assay; type: functional; settings: UACC-257, 48 h
[42] = system: M14; assay: Growth inhibition of human M14 cells after 48 hrs by SRB assay; type: functional; settings: M14, 48 h
[43] = system: MCF7; assay: Cell cycle arrest in human MCF7 cells assessed as accumulation at G0/G1 phase at 4 uM after 24 hrs by propidium iodide staining-based flow cytometry (reference value: 64.04%); type: functional
[44] = system: NCI-H226; assay: Growth inhibition of human NCI-H226 cells after 48 hrs by SRB assay; type: functional; settings: NCI-H226, 48 h
[45] = system: MCF7; assay: Cell cycle arrest in human MCF7 cells assessed as accumulation at S phase at 4 uM after 24 hrs by propidium iodide staining-based flow cytometry (reference value: 20.17%); type: functional
[46] = system: HCT-116; assay: Growth inhibition of human HCT116 cells after 48 hrs by SRB assay; type: functional; settings: HCT-116, 48 h
[47] = system: SR; assay: Growth inhibition of human SR cells after 48 hrs by SRB assay; type: functional
[48] = Growth inhibition of human BT549 cells after 48 hrs by SRB assay; type: functional; settings: BT-549, 48 h
[49] = Growth inhibition of human Hs578T cells after 48 hrs by SRB assay; type: functional; settings: Hs-578T
[50] = system: A498; assay: Growth inhibition of human A498 cells after 48 hrs by SRB assay; type: functional; settings: A498, 48 h
[51] = system: CAKI-1; assay: Growth inhibition of human Caki1 cells after 48 hrs by SRB assay; type: functional; settings: CAKI-1, 48 h
[52] = system: SNB-75; assay: Growth inhibition of human SNB75 cells after 48 hrs by SRB assay; type: functional; settings: SNB-75, 48 h
[53] = system: MDA-MB-435; assay: Growth inhibition of human MDA-MB-435 cells after 48 hrs by SRB assay; type: functional; settings: MDA-MB-435, 48 h
[54] = system: HL-60(TB); assay: Growth inhibition of human HL-60(TB) cells after 48 hrs by SRB assay; type: functional; settings: HL-60, 48 h
[55] = Growth inhibition of human OVCAR4 cells after 48 hrs by SRB assay; type: functional; settings: OVCAR-4, 48 h
[56] = Growth inhibition of human LOXIMVI cells after 48 hrs by SRB assay; type: functional; settings: LOX IMVI
[57] = system: SK-MEL-28; assay: Growth inhibition of human SK-MEL-28 cells after 48 hrs by SRB assay; type: functional; settings: SK-MEL-28, 48 h
[58] = system: DU-145; assay: Growth inhibition of human DU145 cells after 48 hrs by SRB assay; type: functional; settings: DU-145, 48 h
[59] = system: HT-29; assay: Growth inhibition of human HT-29 cells after 48 hrs by SRB assay; type: functional; settings: HT-29, 48 h
[60] = system: CCRF-CEM; assay: Growth inhibition of human CCRF-CEM cells after 48 hrs by SRB assay; type: functional
[61] = system: SF-268; assay: Growth inhibition of human SF268 cells after 48 hrs by SRB assay; type: functional; settings: SF-268, 48 h
[62] = system: HOP-62; assay: Growth inhibition of human HOP62 cells after 48 hrs by SRB assay; type: functional; settings: HOP-62, 48 h
[63] = system: PC-3; assay: Growth inhibition of human PC3 cells after 48 hrs by SRB assay; type: functional; settings: PC-3, 48 h
[64] = Growth inhibition of human OVCAR8 cells after 48 hrs by SRB assay; type: functional; settings: OVCAR-8, 48 h

COc1cc(C(=O)/C=C/c2c(C(F)(F)F)nc3ccccn23)cc(OC)c1OC
GI50 [1]: 1510 nM | GI50 [2]: 2120 nM | GI50 [3]: 1570 nM | GI50 [4]: 2110 nM | GI50 [5]: 3730 nM | GI50 [6]: 1870 nM | GI50 [7]: 2830 nM | GI50 [8]: 1720 nM | GI50 [9]: 1490 nM | GI50 [10]: 1770 nM | GI50 [11]: 3520 nM | GI50 [12]: 1950 nM | GI50 [13]: 2230 nM | GI50 [14]: 4040 nM | GI50 [15]: 1930 nM | GI50 [16]: 1680 nM | GI50 [17]: 1980 nM | GI50 [18]: 2650 nM | GI50 [19]: 1620 nM | GI50 [20]: 1730 nM | GI50 [21]: 1830 nM | GI50 [22]: 1990 nM | GI50 [23]: 2090 nM | GI50 [24]: 1980 nM | GI50 [25]: 1830 nM | GI50 [26]: 1290 nM | inhibition [27]: Active | GI50 [28]: 2050 nM | GI50 [29]: 1660 nM | GI50 [30]: 1440 nM | GI50 [31]: 2010 nM | GI50 [32]: 2370 nM | GI50 [33]: 2090 nM | GI50 [34]: 1410 nM | GI50 [35]: 2100 nM | GI50 [36]: 2430 nM | GI50 [37]: 4590 nM | GI50 [38]: 1630 nM | GI50 [39]: 4040 nM | Activity [40]: 0.66% | GI50 [41]: 1660 nM | GI50 [42]: 1820 nM | Activity [43]: 95.24% | GI50 [44]: 3550 nM | Activity [45]: 4.1% | GI50 [46]: 1260 nM | GI50 [47]: 2910 nM | GI50 [48]: 1640 nM | GI50 [49]: 3270 nM | GI50 [50]: 2400 nM | GI50 [51]: 1820 nM | GI50 [52]: 1760 nM | GI50 [53]: 2260 nM | GI50 [54]: 4120 nM | GI50 [55]: 4100 nM | GI50 [56]: 1660 nM | GI50 [57]: 1930 nM | GI50 [58]: 1610 nM | GI50 [59]: 1930 nM | GI50 [60]: 4150 nM | GI50 [61]: 1640 nM | GI50 [62]: 2970 nM | GI50 [63]: 3800 nM | GI50 [64]: 3390 nM
